{"source": "patent US6797721B2", "about": "“Phorboxazole derivatives for treating cancer” (Parker Hughes Institute, priority 1999, dated 2004)", "assay_type_in_all_cases": "cell-based", "key": {"PC3 (prostate cancer)": {"tested_on": "PC3 (prostate cancer)", "experiment": "MTT cytotoxicity assay, PC3", "conditions": "Homo sapiens"}, "[1]": {"tested_on": "U266BL (multiple myeloma)", "experiment": "MTT cytotoxicity assay, U266BL", "conditions": "Homo sapiens", "experimental": "The cytotoxicity assay of synthetic Phorboxazole A and various derivative compounds against human tumor cells was performed using the MTT (3-[4,5-dimethylthiazol-2-yl]-2,5-diphenyl tetrazolium bromide) assay (Boehringer Mannheim Corp., Indianapolis, Ind.). Briefly, exponentially growing brain tumor cells were seeded into a 96-well plate at a density of 2.5×10^4 cells/well and incubated for 36 hours at 37° C. prior to drug exposure. On the day of treatment, culture medium was carefully aspirated from the wells and replaced with fresh medium containing the various phorboxazole A derivative compounds as well as the tyrosine kinase inhibitory isoflavone genistein (GEN) at concentrations ranging from 0.1 to 250 μM. Triplicate wells were used for each treatment.\nThe cells were incubated with the various compounds for 24-36 hours at 37° C. in a humidified 5% CO2 atmosphere. To each well, 10 μl of MTT (0.5 mg/ml final concentration) was added and the plates were incubated at 37° C. for 4 hours to allow MTT to form formazan crystals by reacting with metabolically active cells. […] The absorbance of each well was measured in a microplate reader (Labsystems) at 540 nm and a reference wavelength of 690 nm. […] The percent survival was calculated using the formula: [formula]\nThe IC50 values were calculated by non-linear regression analysis. […]"}, "[2]": {"tested_on": "human breast cancer cell line BT-20", "experiment": "In situ detection of apoptosis (nick-end-labeling, confocal microscopy)", "conditions": "final concentration of 100 μM, 24 hours", "experimental": "The synthetic Phorboxazole A and the synthetic analogs were also assayed for apoptosis-inducing activity. Assay for apoptosis was performed by the in situ nick-end-labeling method using an ApopTag in situ detection kit (Oncor, Gaithersburg, Md.) according to the manufacturer's reconmmendations. Immunofluorescence was used to examine the morphologic features of human breast cancer cell line BT-20 (American Type Culture Collection Rockville, Md.) treated with the novel phorboxazole A derivatives of the present invention.\nCells were trypsinized from rapidly growing tissue culture flasks and seeded onto sterile 22 mm^2 coverslips in 6-well culture plates. Cells on coverslips were returned to the incubator for 24 hours prior to treatment. The phorboxazole A derivatives were added to the cells from a stock solution made in DMSO to a final concentration of 100 μM. Final DMSO concentration were kept at 0.1% in both test samples and controls. Cells were returned to a 37° C. incubation for 24 hours before further processing. At 24 hours, coverslips were fixed in −20° C. methanol for 15 minutes followed by a 15 minute incubation in phosphate buffered saline +0.1% Triton X-100 (PBS-Tx). Coverslips were then incubated with a monoclonal antibody against α-tubulin (Sigma Chemical Co., St. Louis, Mo.) at a dilution of 1:1000 for 40 minutes in a humidified chamber at 37° C. Coverslips were washed for 15 minutes in PBS-Tx followed by a 40 minute incubation with goat anti-mouse IgG antibody conjugated to FITC (Amersham Corp., Arlington Heights, Ill.). The coverslips were again rinsed in PBS-Tx and incubated with 5 μM TOTO-3 (Molecular Probes, Eugene, Oreg.) for 20 minutes to label the nuclear DNA. Coverslips were immediately inverted onto slides in Vectashield (Vector Labs, Burlingame) to prevent photobleaching, sealed with nail varnish and stored at 4° C.\nSlides were examined using a Bio-Rad MRC-1024 Laser Scanning Confocal Microscope mounted on a Nikon Eclipse E800 upright microscope with high numerical aperture objectives. […]"}}, "note": "pIC50: −log10 of the molar value.", "data": [{"smiles": "C=C1C[C@@H]2C[C@@H]3C[C@@H](O)C[C@@H](O3)c3coc(n3)/C=C/C[C@H]3O[C@@H](/C(C)=C/c4coc(C[C@]5(O)C[C@H](OC)C[C@H]([C@H](O)/C=C(C)/C=C/[C@@H](C/C=C/Br)OC)O5)n4)[C@H](C)[C@@H](OC(=O)/C=C\\C[C@@H](C1)O2)[C@H]3C", "note": "[Compound 1, Phorboxazole A]", "values": [{"measurement": "pIC50", "setting": "PC3 (prostate cancer)", "result": 7.85}, {"measurement": "pIC50", "setting": "[1]", "result": 7.83}, {"measurement": "Apoptosis-inducing activity", "setting": "[2]", "result": "apoptotic activity"}]}]}
